Assay results from PMC8665847 (European Journal of Medicinal Chemistry, 2021).

Assays:
SARS-CoV 3CL^pro = conditions: cited from earlier work
SARS-CoV-2 3CL^pro = SARS-CoV-2 3CL^pro (Severe acute respiratory syndrome coronavirus 2, UniProt P0DTD1); assay: biochemical; assay type: biochemical; conditions: for time dependence of the level of inhibition: incubation time 0-60 min, inhibitor close to its IC50 concentration (Fig. S4)
3CL^pro = 3CL^pro (Severe acute respiratory syndrome coronavirus 2, UniProt P0DTD1); assay: LC-MS detection of 3CLpro-inhibitor covalent adducts; assay type: binding, SARS-CoV-2

C=CS(=O)(=O)N(c1ccc(C(C)(C)C)cc1)[C@@H](C(=O)N[C@@H](C)c1ccccc1)c1cccnc1 (mixture of isomers) [14g, (S)- and (R)-2-(N-(4-(tert-butyl)phenyl)vinylsulfonamido)-N-((S)-1-phenylethyl)-2-(pyridin-3-yl)acetamide]
inhibition at 50 µM (SARS-CoV-2 3CL^pro): > 95% | times more potent than diastereomer 14h (SARS-CoV-2 3CL^pro; ratio of IC50): approximately 20 times

C=CS(=O)(=O)N(c1ccc(C(C)(C)C)cc1)C(C(=O)NC1CCCCC1)c1cccnc1 (stereo not drawn) [14a, 2-(N-(4-(tert-butyl)phenyl)vinylsulfonamido)-N-cyclohexyl-2-(pyridin-3-yl)acetamide]
IC50 (SARS-CoV-2 3CL^pro): 0.5 µM | time dependence of the level of inhibition (SARS-CoV-2 3CL^pro): increased with incubation time | presence of 3CLpro-inhibitor adduct by LC-MS (3CL^pro): confirmed

CC(C)(C)c1ccc(N(C(=O)C#CCO)C(C(=O)NC2CCCCC2)c2cccnc2)cc1 (stereo not drawn) [23a, N-(4-(tert-butyl)phenyl)-N-(2-(cyclohexylamino)-2-oxo-1-(pyridin-3-yl)ethyl)-4-hydroxybut-2-ynamide]
improvement in potency over alkynylamide analogue 13a (SARS-CoV-2 3CL^pro; ratio of IC50): ~10 fold

C=CC(=O)N(c1ccc(C(C)(C)C)cc1)C(C(=O)NC1CCCCC1)c1cccnc1 (stereo not drawn) [6a, N-(4-(tert-butyl)phenyl)-N-(2-(cyclohexylamino)-2-oxo-1-(pyridin-3-yl)ethyl) acrylamide]
IC50 (SARS-CoV-2 3CL^pro): 11.1 ± 1.5 µM

CC(C)(C)c1ccc(N(C(=O)c2c[nH]cn2)C(C(=O)NC2CCCCC2)c2cccnc2)cc1 (stereo not drawn) [X77, N-(4-(tert-butyl)phenyl)-N-(2-(cyclohexylamino)-2-oxo-1-(pyridin-3-yl)ethyl)-1H-imidazole-5-carboxamide]
IC50 (SARS-CoV 3CL^pro): 3.4 µM

CC(C)(C)c1ccc(N(C(=O)CCl)C(C(=O)NC2CCCCC2)c2cccnc2)cc1 (stereo not drawn) [16a, N-(4-(tert-butyl)phenyl)-2-chloro-N-(2-(cyclohexylamino)-2-oxo-1-(pyridin-3-yl)ethyl) acetamide]
time dependence of the level of inhibition (SARS-CoV-2 3CL^pro): increased with incubation time | presence of 3CLpro-inhibitor adduct by LC-MS (3CL^pro): confirmed

C=CS(=O)(=O)N(c1ccc(C(C)(C)C)cc1)[C@H](C(=O)N[C@@H](C)c1ccccc1)c1cccnc1 (mixture of isomers) [14h, (S)- and (R)-2-(N-(4-(tert-butyl)phenyl)vinylsulfonamido)-N-((S)-1-phenylethyl)-2-(pyridin-3-yl)acetamide]
inhibition at 50 µM (SARS-CoV-2 3CL^pro): > 95%
